Measured values taken from patent US4559326A, “Antiinflammatory compositions and methods” (Pfizer Inc., priority 1985, dated 1985).
Counter-ions that a name gives are not always drawn.

Test system: Gastric lesions induced by the ethanolamine salt of piroxicam
Assay: Protective effect of inositol on piroxicam-induced gastric lesions in rats
Type: in vivo, rat (CD strain, Sprague-Dawley)
Details: for Significance p < 0.05: two-tailed Student's t-test; for Lesions/Rat (X +/- SE): mean (SE)
Method: Adult male "specific pathogen free" rats weighing 140-160 grams of the CD strain (Sprague-Dawley) were obtained from Charles River Breeding Laboratories (Kingston, N.Y.). The animals were acclimated for approximately one week and tested when they reached a body weight of 200-225 grams. The rats were fasted for 16 hours and randomized into groups consisting of 8 to 20 animals which were normalized with regard to their average body weight.
Gastric ulcers were induced in the animals by orally dosing them with a single 120 mg/kg dose of piroxicam (ethanolamine salt) in 2 ml. of aqueous 0.1% methylcellulose (pH=6.8). Those animals receiving a second medicinal agent separately received the second drug in an additional 2 ml. of the same medium at about the same time. Six and one-half hours later, the animals were sacrificed by cervical dislocation and autopsied. The stomachs were surgically removed, dissected along the greater curvature and rinsed with cold water. The stomachs were individually scored for both linear and punctate lesions. The total number of lesions was used for scoring purposes. The data obtained from each group of rats were analyzed after calculation of the mean number +/- the standard error of total gastric lesions. The values obtained were also compared to the controls which received only piroxicam by the two-tailed Student's T-Test for nonpaired data.

Row | Lesions/Rat (X +/- SE) (control: 120 mg/kg oral piroxicam ethanolamine salt alone, inositol 0 mg/kg, 6.5 h, 30 rats) | Structure (SMILES) | ED50 (Rattus norvegicus, 6.5 h, oral, linear regression analysis, lesions induced by 120 mg/kg piroxicam ethanolamine salt, read-out: ED50 (dose of inositol required to inhibit 50% of control gastric lesion)) [mg/kg] | Reduction of piroxicam-induced gastric lesions (healthy fasted rat, statement in words) | Significance p < 0.05 (inositol 10 mg/kg oral vs piroxicam-only control) | Lesions/Rat (X +/- SE) (inositol 10 mg/kg oral, with 120 mg/kg oral piroxicam ethanolamine salt, fasted male rats, 6.5 h, 40 rats) | Significance p < 0.05 (inositol 33 mg/kg oral vs piroxicam-only control) | Lesions/Rat (X +/- SE) (inositol 33 mg/kg oral, with 120 mg/kg oral piroxicam ethanolamine salt, fasted male rats, 6.5 h, 40 rats) | Significance p < 0.05 (inositol 100 mg/kg oral vs piroxicam-only control) | Lesions/Rat (X +/- SE) (inositol 100 mg/kg oral, with 120 mg/kg oral piroxicam ethanolamine salt, fasted male rats, 6.5 h, 40 rats) | Significance p < 0.05 (inositol 333 mg/kg oral vs piroxicam-only control) | Lesions/Rat (X +/- SE) (inositol 333 mg/kg oral, with 120 mg/kg oral piroxicam ethanolamine salt, fasted male rats, 6.5 h, 40 rats)
1 |  | O[C@H]1[C@H](O)[C@@H](O)[C@H](O)[C@@H](O)[C@H]1O [Inositol, cis-1,2,3,4-trans-4,6-cyclohexanehexol] | 85 | significantly reduces | + (p < 0.05) | 4.7 (0.9) Lesions/Rat | + (p < 0.05) | 5.2 (0.7) Lesions/Rat | + (p < 0.05) | 3.6 (0.6) Lesions/Rat | + (p < 0.05) | 3.0 (0.8) Lesions/Rat
2 | 7.5 (0.8) Lesions/Rat | CN1C(C(=O)Nc2ccccn2)=C(O)c2ccccc2S1(=O)=O [ethanolamine salt of piroxicam] |  |  |  |  |  |  |  |  |  | 
